This is an account of results in PubChem BioAssay (NCI).

Some test systems named below: HCT-15 colon; HL-60(TB) leukemia; LOX IMVI melanoma; MOLT-4 leukemia; OVCAR-3 ovarian; OVCAR-5 ovarian; SF-295 CNS; SK-MEL-28 melanoma; SK-MEL-5 melanoma; U251 CNS.
Common to all, as to test: NCI-60 cell line screen, 48 h

Several values for one entry are separate records, joined by “and”; a condition that tells them apart may be missing. Equal values may be shown once.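 Results reflect a 48-hour exposure of cells in 96-well plates to compound at five concentrations. Here, GI50 denotes the concentration required for 50% inhibition of growth. At the TGI there is no net growth.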

Regarding `COc1ccc(-c2nn(C(=O)c3cc(OC)c(OC)c(OC)c3)c3cc(N)ccc23)cc1`, the GI50 in the test on HCT-15 colon is less than 0.01 µM; in the test with HL-60(TB) leukemia, less than 0.0121 µM; with LOX IMVI melanoma, less than 0.01 µM; with MOLT-4 leukemia it was 0.0382 µM; in the test on OVCAR-3 ovarian it was less than 0.01 µM; in the test with OVCAR-5 ovarian, 1.54 µM. Also, the GI50 is less than 0.01 µM in the test on SF-295 CNS, 1.76 µM in the test on SK-MEL-28 melanoma, less than 0.0145 µM in the test with SK-MEL-5 melanoma and less than 0.01 µM in the test with U251 CNS. The TGI was 7.21 µM in the test with HCT-15 colon; less than 0.022 µM with HL-60(TB) leukemia; 5.54 µM with LOX IMVI melanoma; 23.7 µM with MOLT-4 leukemia; 27.3 µM in the test on OVCAR-5 ovarian; 1.75 µM in the test with SF-295 CNS. Further, the TGI in the test with SK-MEL-28 melanoma came to 24.3 µM; with SK-MEL-5 melanoma it was 0.0453 µM; in the test on U251 CNS, 1.87 µM.
Turning to `OCC1C2C=CC(O2)[C@H]1CO` (some centres undefined), the TGI in the test on HCT-15 colon, in the test on HL-60(TB) leukemia, with LOX IMVI melanoma, with MOLT-4 leukemia, with OVCAR-3 ovarian and with OVCAR-5 ovarian was greater than 100 µM in each case. The TGI in the test on SF-295 CNS, in the test on SK-MEL-28 melanoma, with SK-MEL-5 melanoma and with U251 CNS was greater than 100 µM each time.
Take `CCCCCCOc1ccc(/C=N/Nc2cc(C)nc3ccc(Br)cc23)cc1`: the GI50 was 1.52 µM in the test with HCT-15 colon; 1.29 µM in the test on HL-60(TB) leukemia; 1.53 µM in the test with LOX IMVI melanoma; 1.2 µM with MOLT-4 leukemia; 1.94 µM in the test with OVCAR-3 ovarian; 1.94 µM in the test with OVCAR-5 ovarian. Moreover, the GI50 with SF-295 CNS is 1.72 µM; in the test with SK-MEL-28 melanoma, 1.81 µM; in the test on SK-MEL-5 melanoma it was 1.67 µM; in the test on U251 CNS, 1.87 µM. Besides, the TGI in the test with HCT-15 colon came to 2.88 µM; in the test with HL-60(TB) leukemia it was 3.26 µM; in the test with LOX IMVI melanoma, 2.9 µM; in the test on MOLT-4 leukemia it was 3.18 µM; in the test with OVCAR-3 ovarian, 3.65 µM; in the test on OVCAR-5 ovarian it was 3.36 µM. The TGI in the test with SF-295 CNS stood at 3.2 µM; in the test with SK-MEL-28 melanoma it was 3.24 µM; in the test with SK-MEL-5 melanoma, 3.04 µM; with U251 CNS, 3.36 µM.
Take `c1ccc(Oc2cnc3ccccc3n2)cc1`: the GI50 was greater than 100 µM in the test with HCT-15 colon; 18.7 µM in the test with HL-60(TB) leukemia; greater than 100 µM in the test on LOX IMVI melanoma; 36.3 µM with MOLT-4 leukemia; greater than 100 µM with OVCAR-3 ovarian; greater than 100 µM with OVCAR-5 ovarian. For the same compound, the GI50 with SF-295 CNS is 36.4 µM; in the test with SK-MEL-28 melanoma it was greater than 100 µM; with SK-MEL-5 melanoma it was 46.3 µM; in the test with U251 CNS, greater than 100 µM. Besides, the TGI with HCT-15 colon, in the test with HL-60(TB) leukemia, with LOX IMVI melanoma, in the test with MOLT-4 leukemia, with OVCAR-3 ovarian and in the test with OVCAR-5 ovarian was greater than 100 µM each time. Moreover, the TGI in the test with SF-295 CNS, in the test on SK-MEL-28 melanoma, with SK-MEL-5 melanoma and in the test with U251 CNS was greater than 100 µM each time.
On to `COc1nc(C(Cl)(Cl)Cl)c(Cl)c(OC)c1Cl`, for which the TGI was 75.6 µM in the test with HCT-15 colon; > 60.3 µM and 71.8 µM in the test on HL-60(TB) leukemia; 62.6 µM with LOX IMVI melanoma; > 67.4 µM and 62.3 µM with MOLT-4 leukemia; > 61.1 µM and 72.6 µM with OVCAR-3 ovarian; > 72.4 µM and 78.7 µM in the test with OVCAR-5 ovarian. Also, the TGI with SF-295 CNS is > 56.9 µM and 75.3 µM; in the test on SK-MEL-28 melanoma, > 83.5 µM and 75.6 µM; in the test with SK-MEL-5 melanoma, 34.5 µM and 83.2 µM; in the test on U251 CNS it was 69.9 µM. The GI50 is greater than 41.9 µM in the test with HL-60(TB) leukemia; greater than 44.9 µM in the test on MOLT-4 leukemia; greater than 43.4 µM in the test on OVCAR-3 ovarian; greater than 50.4 µM in the test on SK-MEL-28 melanoma; 19.6 µM in the test on SK-MEL-5 melanoma.
For the compound `COc1ccccc1NC(=O)C(=O)C(C#N)CC(C)(C)C=O` (centres undefined), the TGI in the test with HCT-15 colon, in the test with HL-60(TB) leukemia, in the test on LOX IMVI melanoma, with MOLT-4 leukemia, in the test with OVCAR-3 ovarian and with OVCAR-5 ovarian was greater than 100 µM in each case. Further, the TGI with SF-295 CNS, with SK-MEL-28 melanoma, in the test with SK-MEL-5 melanoma and with U251 CNS was greater than 100 µM throughout.
As for `OC1/C(=C/c2ccccc2)CNC/C1=C\c1ccccc1` (centres undefined), the TGI in the test on HCT-15 colon, in the test with HL-60(TB) leukemia, in the test with LOX IMVI melanoma, with MOLT-4 leukemia, in the test with OVCAR-3 ovarian and in the test on OVCAR-5 ovarian was greater than 100 µM each time. Besides, the TGI with SF-295 CNS, in the test with SK-MEL-28 melanoma, in the test on SK-MEL-5 melanoma and in the test with U251 CNS was greater than 100 µM each time.
As for `COc1ccc2nc3c(cc2c1)C(=O)CC(C(F)(F)F)C3` (centres undefined), the GI50 is 1.28 µM in the test on HCT-15 colon; 0.333 µM in the test on HL-60(TB) leukemia; 3.54 µM in the test on LOX IMVI melanoma; 0.108 µM in the test on MOLT-4 leukemia; 1.65 µM in the test with OVCAR-3 ovarian; 5.56 µM in the test on OVCAR-5 ovarian. The GI50 in the test with SF-295 CNS was 1.41 µM; in the test with SK-MEL-28 melanoma it was 1.26 µM; in the test with SK-MEL-5 melanoma, 0.545 µM; in the test with U251 CNS, 5.82 µM. For the same compound, the TGI is greater than 100 µM in the test on HCT-15 colon; greater than 46.8 µM in the test with HL-60(TB) leukemia; greater than 100 µM in the test on LOX IMVI melanoma; greater than 100 µM with MOLT-4 leukemia; 6.89 µM with OVCAR-3 ovarian; greater than 100 µM with OVCAR-5 ovarian. In addition, the TGI in the test with SF-295 CNS was 23.3 µM; in the test with SK-MEL-28 melanoma, greater than 100 µM; in the test on SK-MEL-5 melanoma, 9.75 µM; with U251 CNS, greater than 100 µM.
As for `CC(=O)SC(C[N+](=O)[O-])c1ccccc1` (centres undefined), the TGI with HCT-15 colon stood at 4.85 µM; with HL-60(TB) leukemia, 18.9 µM; in the test on LOX IMVI melanoma, 3.34 µM; in the test with MOLT-4 leukemia, 5.36 µM; with OVCAR-3 ovarian, 20.7 µM; in the test on OVCAR-5 ovarian it was 9.11 µM. Besides, the TGI with SF-295 CNS was 15.9 µM; in the test with SK-MEL-28 melanoma, 11.1 µM; with SK-MEL-5 melanoma, 8.77 µM; with U251 CNS, 13.1 µM.
As for `CCn1cc(C(=O)O)c(=O)c2cc(F)c(N3CCNCC3)nc21`, the TGI in the test on HCT-15 colon, in the test with HL-60(TB) leukemia, in the test with LOX IMVI melanoma, in the test on MOLT-4 leukemia, with OVCAR-3 ovarian and in the test on OVCAR-5 ovarian was greater than 100 µM in each case. The TGI in the test with SF-295 CNS, in the test with SK-MEL-28 melanoma, in the test on SK-MEL-5 melanoma and in the test with U251 CNS was greater than 100 µM each time.
